Data: patent US20140135220A1, “Methods for post emergent weed control with Pyroxasulfone and Lactofen” (Valent U.S.A., Corporation, priority 2012, published 2014)

Key:
Palmer Amaranth [1] = assay: Example 1: post emergence treatments on field plots with Palmer Amaranth; type: in vivo; details: COC 1% v/v
Description: In order to determine the efficacy of combinations of pyroxasulfone and lactofen, numerous treatments were applied to plots in an area with abundant Palmer Amaranth growth. Treatments were applied to Palmer that were between 1 and 2 inches tall with a water volume of 20 gallons per acre applied at 35 PSI with a ground speed of 3 MPH. Treatments were repeated 10 days after the first application on another set of plots with Palmer 3 to 12 inches tall with a water volume of 20 gallons per acre applied at 35 PSI with a ground speed of 3 MPH.
The number of living Palmer Amaranth plants was evaluated at 7, 18, 24, and 38 days following the first treatment and 8, 14, and 28 days following the second treatment. Effect of Pyroxasulfone and Lactofen Treatments on Palmer Amaranth.”

Palmer Amaranth [2] = assay: Example 2: post emergence treatments on soybean plots, control of Palmer Amaranth; type: in vivo; set-up: scale not given here
Description: (§1) In order to determine the efficacy of combinations of pyroxasulfone and lactofen, numerous treatments were applied to plots in an area with abundant Palmer Amaranth and Ivyleaf Morning Glory growth. Soybeans were planted approximately 22 days before treatment. Treatments were applied with a backpack sprayer with a size 6 nozzle at a pace of 3 miles per hour during dry conditions. Each treatment was done in triplicate. Treatments were applied with a water volume of 20 gallons per acre applied at 40 PSI with a ground speed of 3 MPH. At the time of treatment, Palmer Amaranth plants were approximately 2 to 6 inches tall, and Ivyleaf Morning Glory was approximately 3 to 6 inches tall. Effect of Pyroxasulfone and Lactofen Treatments on Palmer Amaranth” and “Table 3. Effect of Pyroxasulfone and Lactofen Treatments on Ivyleaf Morning Glory.”

Soybeans = assay: Example 2: phytotoxicity of the treatments on soybeans; details: soybean, in vivo, 28 days after treatment
Description: as §1
Applicants also evaluated the phototoxicity of the treatments on soybeans. […] Effect of Pyroxasulfone and Lactofen Treatments on Soybeans,” there were no phytotoxic effects 28 days following treatments.

Ivyleaf Morning Glory = assay: Example 2: post emergence treatments on soybean plots, control of Ivyleaf Morning Glory; type: in vivo; set-up: scale not given here
Description: as §1

weeds = details: as a post emergence treatment, applied alone; previous studies; cited from earlier work
[3] = plot 2, Pyroxasulfone 0.213 lb ai/a

## CCOC(=O)C(C)OC(=O)c1cc(Oc2ccc(C(F)(F)F)cc2Cl)ccc1[N+](=O)[O-] (racemic) [Lactofen, ethyl O-[5-(2-chloro-α,α,α-trifluoro-p-tolyloxy)-2-nitrobenzoyl]-DL-lactate]
Palmer Amaranth [1]; plot 3, Lactofen 12.5 fl oz/a
  Palmer Amaranth (% Control) 7 DAT: 66.0%
  Palmer Amaranth (% Control) 8/18 DAT: 97.7%
  Palmer Amaranth (% Control) 14/24 DAT: 97.7%
  Palmer Amaranth (% Control) 28/38 DAT: 99.0%
Palmer Amaranth [2]; plot 8, Lactofen 8 fl oz/a
  Effect on Palmer Amaranth 6 DAT: 86.7
  Effect on Palmer Amaranth 14 DAT: 65.0
  Effect on Palmer Amaranth 28 DAT: 46.7
Palmer Amaranth [2]; plot 9, Lactofen 10.0 fl oz/a
  Effect on Palmer Amaranth 6 DAT: 84.7
  Effect on Palmer Amaranth 14 DAT: 68.3
  Effect on Palmer Amaranth 28 DAT: 46.7
Palmer Amaranth [2]; plot 10, Lactofen 12.5 fl oz/a
  Effect on Palmer Amaranth 6 DAT: 85.0
  Effect on Palmer Amaranth 14 DAT: 71.7
  Effect on Palmer Amaranth 28 DAT: 43.3
Soybeans
  Effect on Soybeans (phytotoxicity) 28 DAT: 0.0
Ivyleaf Morning Glory; plot 8, Lactofen 8 fl oz/a
  Effect on Ivyleaf Morning Glory 6 DAT: 61.7
  Effect on Ivyleaf Morning Glory 14 DAT: 48.3
  Effect on Ivyleaf Morning Glory 28 DAT: 20.0
Ivyleaf Morning Glory; plot 9, Lactofen 10.0 fl oz/a
  Effect on Ivyleaf Morning Glory 6 DAT: 71.7
  Effect on Ivyleaf Morning Glory 14 DAT: 58.3
  Effect on Ivyleaf Morning Glory 28 DAT: 20.0
Ivyleaf Morning Glory; plot 10, Lactofen 12.5 fl oz/a
  Effect on Ivyleaf Morning Glory 6 DAT: 68.3
  Effect on Ivyleaf Morning Glory 14 DAT: 56.7
  Effect on Ivyleaf Morning Glory 28 DAT: 23.3

## Cn1nc(C(F)(F)F)c(CS(=O)(=O)C2=NOC(C)(C)C2)c1OC(F)F [Pyroxasulfone, 5-(difluoromethoxy)-1-methyl-3-(trifluoromethyl)pyrazol-4-ylmethyl 4,5-dihydro-5,5-dimethyl-1,2-oxazol-3-yl sulfone]
Palmer Amaranth [1]; [3]
  Palmer Amaranth (% Control) 7 DAT: 66.9%
  Palmer Amaranth (% Control) 8/18 DAT: 85.0%
  Palmer Amaranth (% Control) 14/24 DAT: 45.0%
  Palmer Amaranth (% Control) 28/38 DAT: 61.7%
weeds
  post emergence activity: poor activity
